Laboratory results as given in patent US10039753B2, “Imidazo[4,5-c]quinoline and imidazo[4,5-c][1,5]naphthyridine derivatives as LRRK2 inhibitors” (Pfizer Inc., priority 2015, dated 2018).
Structures can show the parent of a compound that is named as a salt. Where two headings read alike, the source gives them in different places.

Key:
[1] = target: T1, GST-tagged truncated LRRK2 (Homo sapiens, UniProt Q5S007); assay: LRRK2 Assay, Format 2 (Lantha Screen), WT; type: biochemical
T1 construct: GST-tagged truncated LRRK2 from Invitrogen (Cat # PV4874); GST; purchased Invitrogen PV4874
T1 sequence (Q5S007 970-2527 limits assumed): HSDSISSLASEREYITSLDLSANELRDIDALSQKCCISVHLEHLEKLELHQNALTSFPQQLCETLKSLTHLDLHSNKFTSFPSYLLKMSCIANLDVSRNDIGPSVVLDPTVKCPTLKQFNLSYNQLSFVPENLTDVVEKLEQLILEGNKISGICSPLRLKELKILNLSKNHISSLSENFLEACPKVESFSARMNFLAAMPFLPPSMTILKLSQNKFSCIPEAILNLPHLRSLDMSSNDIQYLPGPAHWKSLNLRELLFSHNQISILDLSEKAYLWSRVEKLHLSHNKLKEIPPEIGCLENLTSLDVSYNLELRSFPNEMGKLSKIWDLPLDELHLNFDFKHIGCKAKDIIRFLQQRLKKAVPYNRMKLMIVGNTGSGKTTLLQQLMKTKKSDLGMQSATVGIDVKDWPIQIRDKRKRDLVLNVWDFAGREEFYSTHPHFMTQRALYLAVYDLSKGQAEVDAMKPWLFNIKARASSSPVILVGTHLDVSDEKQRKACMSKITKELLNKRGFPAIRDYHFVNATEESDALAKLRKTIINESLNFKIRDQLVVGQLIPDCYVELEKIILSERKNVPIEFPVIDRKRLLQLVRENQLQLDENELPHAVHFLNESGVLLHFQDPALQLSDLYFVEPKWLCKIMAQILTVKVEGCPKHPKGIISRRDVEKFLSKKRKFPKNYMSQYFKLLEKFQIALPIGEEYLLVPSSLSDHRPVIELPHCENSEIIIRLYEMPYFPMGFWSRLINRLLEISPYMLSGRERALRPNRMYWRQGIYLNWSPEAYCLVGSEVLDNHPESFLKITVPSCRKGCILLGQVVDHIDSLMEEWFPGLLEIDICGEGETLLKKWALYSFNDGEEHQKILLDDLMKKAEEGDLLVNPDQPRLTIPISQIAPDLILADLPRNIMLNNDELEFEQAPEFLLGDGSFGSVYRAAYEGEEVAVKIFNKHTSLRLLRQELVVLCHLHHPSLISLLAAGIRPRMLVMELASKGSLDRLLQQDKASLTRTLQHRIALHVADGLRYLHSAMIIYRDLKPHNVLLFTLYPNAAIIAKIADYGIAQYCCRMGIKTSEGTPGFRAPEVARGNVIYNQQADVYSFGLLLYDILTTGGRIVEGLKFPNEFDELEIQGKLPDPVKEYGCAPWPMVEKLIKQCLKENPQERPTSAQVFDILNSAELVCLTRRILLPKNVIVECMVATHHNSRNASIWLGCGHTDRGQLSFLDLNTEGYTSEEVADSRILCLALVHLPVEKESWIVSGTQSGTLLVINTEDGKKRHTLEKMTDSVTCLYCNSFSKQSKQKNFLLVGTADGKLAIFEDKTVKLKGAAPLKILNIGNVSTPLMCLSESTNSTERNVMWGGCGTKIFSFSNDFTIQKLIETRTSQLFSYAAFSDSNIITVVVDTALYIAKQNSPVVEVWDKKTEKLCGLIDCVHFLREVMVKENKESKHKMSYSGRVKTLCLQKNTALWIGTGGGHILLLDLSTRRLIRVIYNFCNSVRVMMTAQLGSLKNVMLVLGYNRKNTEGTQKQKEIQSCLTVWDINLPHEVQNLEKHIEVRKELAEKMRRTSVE
Procedure: (§1) LRRK2 kinase activity was measured using Lantha Screen technology from Invitrogen. GST-tagged truncated LRRK2 from Invitrogen (Cat # PV4874) was incubated with a fluorescein-labeled peptide substrate based upon ezrin/radixin/moesin (ERM), also known as LRRKtide (Invitrogen cat # PR8976A), in the presence of a dose response of compound. Upon completion, the assay was stopped and detected with a terbium labeled anti-phospho-ERM antibody (Invitrogen, cat # PR8975A). […] Using Echo acoustic dispensing, 60 nL of compound was transferred to a low volume Corning 384-well assay plate. 3 μL of a working solution of substrate (200 nM LRRKtide, […]) prepared in assay buffer (50 mM HEPES, pH 7.5, 3 mM MgCl2, with 2 mM DTT and 0.01% Brij35 added fresh) was added to the 60 nL compound assay plate. The kinase reaction was started with […] of a working solution of LRRK2 enzyme at a concentration of […]. The final reaction concentrations were 100 nM LRRKtide, […], […] LRRK2 enzyme and a compound dose response with a top dose of 3 mM. The reaction was allowed to progress at room temperature for 30 minutes and then stopped with the addition of […] of detection buffer (20 mM Tris pH 7.6, 0.01% NP-40, 6 mM EDTA with 2 nM terbium labeled anti-phospho-ERM). After an incubation of 1 hour at room temperature, the plate was read on an Envision with an excitation wavelength of 340 nm and a reading emission at both 520 nm and 495 nm. The ratio of the 520 nm and 495 nm emission was used to analyze the data. Inhibition of mutant G2019S LRRK2 (Invitrogen cat # PV4881) was measured in the exact same method. All final concentrations of substrate ATP and enzyme were the same.

[2] = target: mutant G2019S LRRK2 (Homo sapiens, UniProt Q5S007, G2019S); assay: LRRK2 Assay, Format 2 (Lantha Screen), G2019S mutant; type: biochemical; parameters: purchased Invitrogen PV4881
mutant G2019S LRRK2, sequence (Q5S007 970-2527 G2019S limits assumed): as the sequence (Q5S007 970-2527 limits assumed) above, with G1050S counted along it
Procedure: as §1

[3] = geometric mean of 2-4 determinations unless otherwise indicated (a: >=5; b: single determination)
[4] = geometric mean of 2-4 determinations unless otherwise indicated (a: >=5; b: single determination), read-out: LRRK2, Format 2 G2019S IC50

Row | IC50 [1, 3] [nM] | IC50 [2, 4] [nM] | IC50 ([1]; 100 nM LRRKtide, 1000 mM ATP (so in the source), 30 minutes at room temperature) [nM] | IC50 ([2]; 100 nM LRRKtide, 1000 mM ATP (so in the source), 30 minutes at room temperature, read-out: LRRK2, Format 2 G2019S mutant IC50) [nM] | Compound
1 | 29.8 | 42.2 |  |  | Cc1cc(Cc2nc3cnc4ccc(C#N)cc4c3n2[C@H]2CC[C@@H](F)C2)no1 (single isomer, unassigned) [Example C66]
2 | 7.18 | 6.95 |  |  | C[C@@H]1C[C@H](n2c(Cc3nnnn3C)nc3cnc4ccc(Cl)cc4c32)CCO1 [Example 128, 8-chloro-1-[(2R,4R)-2-methyltetrahydro-2H-pyran-4-yl]-2-[(1-methyl-1H-tetrazol-5-yl)methyl]-1H-imidazo[4,5-c]quinoline, formate salt]
3 | 3.46 | 2.28 |  |  | C[C@@H]1C[C@H](n2c(Cc3csnn3)nc3cnc4ccc(C#N)cc4c32)CCO1 [Example 195, 1-[(2R,4R)-2-methyltetrahydro-2H-pyran-4-yl]-2-(1,2,3-thiadiazol-4-ylmethyl)-1H-imidazo[4,5-c]quinoline-8-carbonitrile]
4 | 4.01 | 3.71 |  |  | C[C@@H]1C[C@H](n2c(Cc3noc4ccccc34)nc3cnc4ccc(C#N)cc4c32)CCO1 [Example 154, 2-(1,2-benzoxazol-3-ylmethyl)-1-[(2R,4R)-2-methyltetrahydro-2H-pyran-4-yl]-1H-imidazo[4,5-c]quinoline-8-carbonitrile, formate salt]
5 | 37.3 | 32.6 |  |  | C[C@@H]1C[C@H](n2c(Cc3cnns3)nc3cnc4ccc(Cl)cc4c32)CCO1 [Example 193, 8-chloro-1-[(2R,4R)-2-methyltetrahydro-2H-pyran-4-yl]-2-(1,2,3-thiadiazol-5-ylmethyl)-1H-imidazo[4,5-c]quinoline]
6 | 5.04 | 3.54 |  |  | C[C@@H]1C[C@H](n2c(Cc3cc(CF)on3)nc3cnc4ccc(C#N)cc4c32)CCO1 [Example 189, 2-{[5-(fluoromethyl)-1,2-oxazol-3-yl]methyl}-1-[(2R,4R)-2-methyltetrahydro-2H-pyran-4-yl]-1H-imidazo[4,5-c]quinoline-8-carbonitrile, trifluoroacetate salt]
7 | 10.6 | 9.43 |  |  | C[C@@H]1C[C@H](n2c(Cc3cn(C)cn3)nc3cnc4ccc(C#N)cc4c32)CCO1 [Example 235, 2-[(1-methyl-1H-imidazol-4-yl)methyl]-1-[(2R,4R)-2-methyltetrahydro-2H-pyran-4-yl]-1H-imidazo[4,5-c]quinoline-8-carbonitrile, formate salt]
8 | 7.53 | 8.21 |  |  | C[C@@H]1C[C@H](n2c(Cc3cc(C(F)(F)F)on3)nc3cnc4ccc(C#N)cc4c32)CCO1 [Example 119, 1-[(2R,4R)-2-methyltetrahydro-2H-pyran-4-yl]-2-{[5-(trifluoromethyl)-1,2-oxazol-3-yl]methyl}-1H-imidazo[4,5-c]quinoline-8-carbonitrile]

The next lines start with the compound.

Row | Compound | IC50 [1, 3] [nM] | IC50 [2, 4] [nM] | IC50 ([1]; 100 nM LRRKtide, 1000 mM ATP (so in the source), 30 minutes at room temperature) [nM] | IC50 ([2]; 100 nM LRRKtide, 1000 mM ATP (so in the source), 30 minutes at room temperature, read-out: LRRK2, Format 2 G2019S mutant IC50) [nM]
9 | Cc1nn2cc(Cc3nc4cnc5ccc(Cl)cc5c4n3[C@@H]3CCO[C@H](C)C3)nc2s1 [Example 162, 8-chloro-2-[(2-methylimidazo[2,1-b][1,3,4]thiadiazol-6-yl)methyl]-1-[(2R,4R)-2-methyltetrahydro-2H-pyran-4-yl]-1H-imidazo[4,5-c]quinoline, formate salt] | 3.86 | 3.83 |  | 
10 | Cc1cc(Cc2nc3cnc4ccc(C#N)cc4c3n2C2CCC(F)C2)on1 (single isomer, unassigned; ent-2) [enantiomer of Example 118, 1-(cis-3-fluorocyclopentyl]-2-[(3-methyl-1,2-oxazol-5-yl)methyl]-1H-imidazo[4,5-c]quinoline-8-carbonitrile, ENT-2] |  |  | 22.4 | 26.1
11 | Cc1cn(Cc2nc3cnc4ccc(Cl)cc4c3n2C2CCOC(C)(C)C2)nn1 (centres unmarked) [Example 148, 8-chloro-1-(2,2-dimethyltetrahydro-2H-pyran-4-yl)-2-[(4-methyl-1H-1,2,3-triazol-1-yl)methyl]-1H-imidazo[4,5-c]quinoline, formate salt] | 12.6 | 13.6 |  | 
12 | CC1(C)CC(n2c(Cn3cnnn3)nc3cnc4ccc(Cl)cc4c32)CCO1 (centres unmarked) [Example 150, 8-chloro-1-(2,2-dimethyltetrahydro-2H-pyran-4-yl)-2-(1H-tetrazol-1-ylmethyl)-1H-imidazo[4,5-c]quinoline, formate salt] | 11.6 | 12.1 |  | 
13 | C[C@@H]1C[C@H](n2c(C(F)c3ccon3)nc3cnc4ccc(Cl)cc4c32)CCO1 (single isomer, unassigned) [Example 237] | 4 | 3.92 |  | 
14 | C[C@@H]1C[C@H](n2c(Cn3ccc(C4CC4)n3)nc3cnc4ccc(Cl)cc4c32)CCO1 [Example 160, 8-chloro-2-[(3-cyclopropyl-1H-pyrazol-1-yl)methyl]-1-[(2R,4R)-2-methyltetrahydro-2H-pyran-4-yl]-1H-imidazo[4,5-c]quinoline, formate salt] | 6.23 | 6.36 |  | 
15 | Cc1cc(Cc2nc3cnc4ccc(C#N)cc4c3n2C2CCOC(C)(C)C2)no1 (centres unmarked) [Example 239, 1-(2,2-dimethyltetrahydro-2H-pyran-4-yl)-2-[(5-methyl-1,2-oxazol-3-yl)methyl]-1H-imidazo[4,5-c]quinoline-8-carbonitrile, formate salt] | 9.74 | 10.8 |  | 
16 | N#CCc1nc2cnc3ccc(F)cc3c2n1[C@@H]1CC[C@H](F)C1 (single isomer, unassigned; ent-1) [Example 170, {8-fluoro-1-(cis-3-fluorocyclopentyl)-1H-imidazo[4,5-c]quinolin-2-yl}acetonitrile, ENT-1] | 64.4 | 106 |  | 
17 | C[C@@H]1C[C@H](n2c(Cn3cccn3)nc3cnc4ccc(Cl)cc4c32)CCO1 [Example 130, 8-chloro-1-[(2R,4R)-2-methyltetrahydro-2H-pyran-4-yl]-2-(1H-pyrazol-1-ylmethyl)-1H-imidazo[4,5-c]quinoline, formate salt] | 3.43 | 3.84 |  | 
18 | COc1cnn(Cc2nc3cnc4ccc(F)cc4c3n2[C@@H]2CCO[C@H](C)C2)c1 [Example 179, 8-fluoro-2-[(4-methoxy-1H-pyrazol-1-yl)methyl]-1-[(2R,4R)-2-methyltetrahydro-2H-pyran-4-yl]-1H-imidazo[4,5-c]quinoline] | 14 | 12.6 |  | 
19 | Cc1cc(Cc2nc3cnc4ccc(C#N)cc4c3n2C2CCCC2(F)F)no1 (single isomer, unassigned; ent-2) [Example 144, 1-(2,2-difluorocyclopentyl)-2-[(5-methyl-1,2-oxazol-3-yl)methyl]-1H-imidazo[4,5-c]quinoline-8-carbonitrile, ENT-2] | 19.3 | 29.3 |  | 
20 | CC(F)(F)Cn1c(Cn2ccc(C3CC3)n2)nc2cnc3ccc(C#N)cc3c21 [Example 225, 2-[(3-cyclopropyl-1H-pyrazol-1-yl)methyl]-1-(2,2-difluoropropyl)-1H-imidazo[4,5-c]quinoline-8-carbonitrile] | 7.23 | 8.7 |  | 
21 | C[C@@H]1C[C@H](n2c(Cc3cc(CO)on3)nc3cnc4ccc(Cl)cc4c32)CCO1 [Example 138] | 2.89 | 3.72 |  | 
22 | N#CCc1nc2cnc3ccc(Cl)cc3c2n1[C@@H]1CC[C@H](F)C1 (single isomer, unassigned; ent-1) [Example 204, {8-chloro-1-(cis-3-fluorocyclopentyl)-1H-imidazo[4,5-c]quinolin-2-yl}acetonitrile, ENT-1] | 22.8 | 35.1 |  | 
